The test concerns herpes labialis outbreak. The test is described as follows: Clinical trial of herpes labialis outbreaks after sensitization dose (Example 2). The format is in vivo, human. The following applies: for Average days to first outbreak after the sensitization dose: 120 days used if no outbreak in 120 days. As to the method: The median time to the next outbreak for the placebo group was 40 days vs more than 122 days for the 2.0% SADBE group, which difference was highly significant (P=0.009) (Palli 2017). SADBE is a topical immunosensitizer that induces a delayed-type hypersensitivity response and is commonly used in the treatment of verruca vulgaris and alopecia areata (Lee 1999; Silverberg 2000, Rokhshar 1998). […]
(p<0.05). The average days to the first outbreak after the sensitization dose was also measured. […] The A: placebo, 0% SADBE in DMSO.

The source of these data is patent US11957783B2, “Topical immunosensitizers to treat viral and fungal infections” (Squarex, LLC, priority 2018, dated 2024).

Values joined by “and” are separate entries in the source; they are usually repeats but may differ in a detail not shown here. Equal entries are not always repeated. Marks after values point to notes of the source that are not given here. A value given as a limit tells only on which side of the number the result lay.

On to `CCCCOc1c(OCCCC)c(=O)c1=O` [2% SADBE], for which the “Persons having an outbreak within X days after the sensitization dose” value (“Persons having an outbreak within X days” below) reads like this: (30 days, group B) 2 (of 16); (30 days, group C) 3 (of 15); (30 days, groups B + C) 5 (of 31); (45 days, group B) 4 (of 16); (45 days, group C) 4 (of 15); (45 days, groups B + C) 8 (of 31). The “Persons having an outbreak within X days” value (60 days, group B) is listed as 5 (of 16); the “Persons having an outbreak within X days” value (60 days, group C) is 4 (of 15); the “Persons having an outbreak within X days” value (60 days, groups B + C) was 9 (of 31); the “Persons having an outbreak within X days” value (<120 days, group B) is listed as 6 (of 16); the “Persons having an outbreak within X days” value (<120 days, group C) is reported as 4 (of 15); the “Persons having an outbreak within X days” value (<120 days, groups B + C) is 10 (of 31). For the same compound, the “Days to first new outbreak after sensitization dose on upper arm” value (each patient) is 18 days and 34 days and 37 days and 41 days and 50 days and 80 days and 91 days and >120 days (19×) and 14 days (2×) and 15 days. For the same compound, the “Average days to first outbreak after the sensitization dose” value is on record as 88.5 days (group B), 94.7 days (group C) and 91.5* days (groups B + C). The “Days to first new outbreak after sensitization dose on upper arm, median” value (treatment group) is listed as above 120 days.
